| melting point | Structure (SMILES) |
| --- | --- |
| 170 to 172 °C | Nc1nnc(C2CC2)o1 |
| 66 to 68 °C | N#CC(Cl)(Cl)c1nc2ccccc2s1 |
| 162 to 164 °C | NC(=O)c1cccc(Oc2ccc(N)nc2)c1 |
| 38 to 40 °C | CCOC(=O)c1ccc(NC(=O)CCl)cc1 |
| 208 to 210 °C | N#Cc1c(N2CCCC2)n[nH]c1N |
| 123 to 125 °C | Cc1cccc(OC(C)C(=O)O)c1C (centres undefined) |
| 167 to 169 °C | NC(=O)c1ccc(Br)c(F)c1 |
| 76 to 78 °C | Cc1ccc(S(=O)(=O)CC(C)O)cc1 (centres undefined) |
| 154 to 156 °C | OCc1cnc(-c2ccccc2)[nH]1 |
| 99 to 101 °C | O=C(O)C=Cc1ccccc1OCC1CCCCC1 |
| 119 to 121 °C | CC(Oc1ccc(Cl)cc1[N+](=O)[O-])C(=O)O (centres undefined) |
| 191 to 193 °C | CN1C(=O)C(=O)N(CC(=O)O)C1=O |
| 51 to 53 °C | NCc1ccc(OCCCOc2ccc(Cl)cc2Cl)cc1 |
| 239 to 241 °C | CN(C)Cc1ccc(C(=O)O)cc1 |
| 282 to 284 °C | O=c1[nH]cnc2cc3ccccc3cc12 |
| 161 to 163 °C | Cc1ccc(C)c(NC(=O)CCl)c1 |
| 219 to 221 °C | Cn1ccc(C(=O)O)cc1=O |
| 87 to 89 °C | NCC(=O)N1CCN(c2ccc(Cl)cc2)CC1 |
| 154 to 156 °C | CCN(CC)C(=O)c1ccc(N)cc1Cl |
| 95 to 97 °C | O=C(O)CSCC(=O)c1ccccc1 |
| 139 to 141 °C | O=C(O)c1cn(-c2ccc(Br)cc2C(F)(F)F)nn1 |
| 163 to 165 °C | O=C(O)C(=O)Cc1cccs1 |
| 76 to 78 °C | CC(C)(C)OC(=O)N[C@@H]1CCCC[C@H]1N (relative stereo) |

| melting point | Structure (SMILES) |
| --- | --- |
| 89 to 91 °C | CCc1ccc(C(=O)O)o1 |
| 63 to 65 °C | CC(C)CC(N)C(O)c1cccs1 (centres undefined) |
| 179 to 181 °C | CC(C)c1nc(C(=O)O)nn1-c1c(Cl)cccc1Cl |
| 281 to 283 °C | Nc1ccc(-c2cc3ccccc3o2)cc1 |
| 232 to 234 °C | O=C(O)c1ccc(S(=O)(=O)NCc2cccs2)cc1 |
| 168 to 170 °C | Cc1cc(NN)nc2c(C)cccc12 |
| 15 to 17 °C | O[C@@H]1CCNC1 |
| 304 to 306 °C | O=S(=O)(O)C1CCCNC1 (centres undefined) |
| 95 to 97 °C | O=C(O)C1CSc2ccccc21 (centres undefined) |
| 157 to 159 °C | Clc1ccc(-c2ccccc2)nn1 |
| 195 to 197 °C | Nc1ncncc1-c1ccc(Cl)cc1 |
| 178 to 180 °C | N=C1N=C2C=CC(Br)=CN2Cc2ccccc21 |
| 96 to 98 °C | Cc1c(S(=O)(=O)Cl)cnn1-c1ccc(F)cc1 |
| 219 to 221 °C | NNC(=O)c1cc(-c2ccco2)nc2ccccc12 |
| 161 to 163 °C | N#CCC1C(=O)Nc2ccccc21 (centres undefined) |
| 61 to 63 °C | CCOC(=O)c1c(N)cc(OC)cc1OC |
| 256 to 258 °C | CCN1N=C(C(=O)O)CC1=O |
| 79 to 81 °C | Cc1cccc(-c2cc(N)n(Cc3ccccc3)n2)c1 |
| 179 to 181 °C | NC(Cc1ccco1)C(=O)O (centres undefined) |
| 89 to 91 °C | COC(=O)c1cc(N)cc(F)c1F |
| 111 to 113 °C | O=[N+]([O-])c1cc(O)cc(F)c1 |
| 141 to 143 °C | NC(=O)c1cccc(N)n1 |
| 133 to 135 °C | NC(=O)C1CN(C(=O)CCl)c2ccccc2O1 (centres undefined) |

| melting point | Structure (SMILES) |
| --- | --- |
| 173 to 175 °C | O=C(O)c1cccc(Cl)c1O |
| 219 to 221 °C | Cc1cc(C(=O)O)nn1-c1ccc(Cl)c(Cl)c1 |
| 197 to 199 °C | O=C(O)C1CCCN1C(=O)c1ccc2ccccc2c1O (centres undefined) |
| 146 to 148 °C | CC(C)(C)NS(=O)(=O)c1ccc(N)nc1 |
| 301 to 303 °C | CC(N)(C(=O)O)c1cc(F)ccc1F (centres undefined) |
| 163 to 165 °C | Cc1c(C(=O)O)c(=O)oc2ccccc12 |
| 98 to 100 °C | Cc1nc2ccccn2c1P(c1ccccc1)c1ccccc1 |
| 84 to 86 °C | O=C(O)C(c1ccccc1)C1CC1 (centres undefined) |
| 185 to 187 °C | COc1ccc(-c2csc(N)n2)cc1F |
| 198 to 200 °C | Nc1cccc(S(=O)(=O)Nc2ccccc2C(=O)O)c1 |
| 175 to 177 °C | Cc1nn(C)c(C)c1CC(N)=O |
| 68 to 70 °C | COC(=O)C(C)(N)C(c1ccccc1)c1ccccc1 (centres undefined) |
| 148 to 150 °C | COCCN1C(=O)CC(=O)NC1=S |
| 131 to 133 °C | Cc1ccc(N)cc1S(=O)(=O)NC(C)(C)C |
| 59 to 61 °C | CC(=O)C(N)=S |
| 54 to 58 °C | O=C(O)CCc1ccsc1 |
| 175 to 177 °C | CC1=NN(Cc2ccccc2)C(=O)C1 |
| 205 to 207 °C | Cc1ccccc1-n1nc(C(=O)O)c2c1CCC2 |
| 188 to 190 °C | CC(=O)c1cccc(S(=O)(=O)NCC(=O)O)c1 |
| 77 to 79 °C | CC(C)n1[nH]ccc1=NC(=O)OCC(F)(F)F |
| 64 to 66 °C | O=[N+]([O-])c1ccccc1CSc1ccc(C(F)(F)F)cn1 |
| 153 to 155 °C | CCOC(=O)/C(C#N)=C/Nc1ccc(OC)cc1OC |
| 71 to 73 °C | COc1ccc(NCc2cccs2)cc1 |

| melting point | Structure (SMILES) |
| --- | --- |
| 163 to 165 °C | Cc1nn(-c2ccc(F)cc2F)c(C)c1CC(=O)O |
| 184 to 186 °C | CCC(c1ccccc1)c1nnc(N)s1 (centres undefined) |
| 176 to 178 °C | O=Cc1cn(-c2ccccc2)nc1-c1cc2ccccc2o1 |
| 127 to 129 °C | CC(=O)Nc1cc(F)ccc1-c1csc(N)n1 |
| 171 to 173 °C | COc1ccc(N2CC(C(=O)O)CC2=O)cc1 (centres undefined) |
| 174 to 176 °C | Cc1ccc(S(=O)(=O)NC(CCl)c2ccccc2)cc1 (centres undefined) |
| 184 to 186 °C | O=C(O)c1c[nH]c(-c2cccc([N+](=O)[O-])c2)n1 |
| 86 to 88 °C | Cc1cc(C(=O)c2cccnc2)ccc1F |
| 84 to 86 °C | Nc1noc(C2CC2)n1 |
| 123 to 125 °C | Cc1nc2ccccc2c(N)c1C(C)C |
| 62 to 64 °C | O=C1CCS(=O)CC1 |
| 49 to 51 °C | Nc1nc2c(F)c(F)ccc2s1 |
| 63 to 65 °C | COC(=O)C(=O)CC(=O)c1ccc(C)cc1C |
| 105 to 107 °C | CC(C)(C)c1ccc(CCC(=O)O)cc1 |
| 121 to 123 °C | CCN(C(C)=O)c1nc(C=O)cs1 |
| 160 to 162 °C | O=C(O)c1cc(F)c(O)c(F)c1 |
| 88 to 92 °C | COc1ccc(C(=O)CCl)cc1F |
| 55 to 57 °C | CC(C)CC(C)n1nccc1N (centres undefined) |
| 255 to 257 °C | O=C(O)C1(Cc2nc3ccccc3[nH]2)CCCC1 |
| 106 to 108 °C | O=C(O)C1(c2ccccc2F)CC1 |
| 64 to 66 °C | O=C1CCCCc2c[nH]cc21 |
| 195 to 197 °C | NC(=O)c1ccc(N2CCNCC2)nc1 |
| 103 to 105 °C | N#Cc1ccc(NCCN)nc1 |

| melting point | Structure (SMILES) |
| --- | --- |
| 211 to 213 °C | N#Cc1cc(Cl)ccc1Oc1cccc(C(=O)O)c1 |
| 124 to 126 °C | O=S1(=O)CCNC(c2ccccc2)C1 (centres undefined) |
| 101 to 103 °C | FC(F)(F)c1cc(Cl)ccc1-n1nnnc1CCl |
| 119 to 121 °C | NC(=O)C(N)c1ccc(Br)cc1 (centres undefined) |
| 178 to 180 °C | Nc1cc(C(=O)O)c2ccccc2c1 |
| 136 to 138 °C | O=C(O)c1cc(F)cc(S(=O)(=O)Cl)c1 |
| 58 to 60 °C | COc1ccc(S(=O)(=O)Cl)cc1[N+](=O)[O-] |
| 74 to 76 °C | O=S(=O)(Cl)c1cn2c(n1)CCCC2 |
| 112 to 114 °C | COc1ccc(CCCCC(=O)O)cc1 |
| 233 to 235 °C | O=C(O)C=Cc1cnc2ccccc2n1 |
| 134 to 136 °C | O=C(O)C1CCCN1C(=O)c1ccccc1O (centres undefined) |
| 96 to 98 °C | Fc1cc(CBr)c2ncccc2c1 |
| 51 to 53 °C | N#CCNc1cccc(Cl)c1 |
| 238 to 240 °C | CC1=C(C(=O)Nc2ccccc2)C2(CCCCC2)C(C#N)=C(S)N1 |
| 81 to 83 °C | COc1ccc(CNc2cnn(C)c2)c(OC)c1 |
| 148 to 150 °C | CCOC(=O)c1sc(NC(=O)CCl)c(C(=O)OC(C)(C)C)c1C |
| 220 to 222 °C | Cc1nc2ncnn2c(C)c1CC(=O)O |
| 109 to 111 °C | Nc1ccc(N2CCSCC2)cc1 |
| 61 to 63 °C | CS(=O)(=O)OCC1CCOCC1 |
| 44 to 46 °C | Cc1ccc(OC2CCNCC2)cc1 |
| 66 to 68 °C | Nc1ccc(N2CCOCC2)c(S(=O)(=O)Nc2cc(Cl)ccc2Cl)c1 |
| 107 to 109 °C | Cc1ccc(-c2nn(Cc3ccccc3)cc2/C=C/C(=O)O)cc1 |
| 115 to 117 °C | O=C(O)C1(c2cccc(F)c2)CC1 |

| melting point | Structure (SMILES) |
| --- | --- |
| 149 to 151 °C | N#Cc1ccc(O)c(N)c1 |
| 69 to 71 °C | O=C(OCc1ccc(Br)cc1)c1ccccc1O |
| 110 to 112 °C | Cc1c(C(=O)CBr)oc2ccccc12 |
| 147 to 149 °C | CC1Oc2ccc(C(=O)CBr)cc2NC1=O (centres undefined) |
| 117 to 119 °C | Cc1ccc(S(=O)(=O)N(C)C(C)C)cc1N |
| 131 to 133 °C | Oc1cccc(-n2cccn2)c1 |
| 225 to 227 °C | CN(C)c1ccc(C(=O)O)cn1 |
| 76 to 78 °C | CNC1CCCN(c2ccccc2)C1=O (centres undefined) |
| 93 to 95 °C | Clc1cc(OCc2ccccc2)ccn1 |
| 103 to 105 °C | CCc1nc(C=O)c2ccccn12 |
| 145 to 147 °C | CC(=O)Nc1ccc(S(=O)(=O)N2CCC(=O)CC2)cc1 |
| 175 to 177 °C | COC(=O)c1ccncc1C(=O)O |
| 189 to 191 °C | O=Cc1cn2cccnc2n1 |
| 119 to 121 °C | CCCn1c(S)nnc1CO |
| 223 to 225 °C | Cc1ccc(F)cc1-c1nc2ccccc2[nH]1 |
| 153 to 155 °C | Cc1ccc(S(=O)(=O)N2CCN(C(=O)C(C)Cl)CC2)cc1 (centres undefined) |
| 135 to 137 °C | Nc1cccc(C(=O)Nc2cnccn2)c1 |
| 132 to 134 °C | Cc1csc(Sc2c(N)cccc2Cl)n1 |
| 217 to 219 °C | Cc1nc(S(=O)(=O)NCC(=O)O)cn1C |

| Structure (SMILES) | melting point |
| --- | --- |
| N#Cc1ccc(CN2CCNCC2)cc1 | 214 to 216 °C |
| Cc1nn(Cc2ccc(Cl)cc2)c(C)c1C(=O)O | 188 to 190 °C |
| CCCOc1cc2c(cc1OCCC)CCNCC2 | 61 to 63 °C |
| Cc1cc(N)ccc1NC(=O)CN1CCCC1=O | 209 to 211 °C |
| O=C(O)c1cnn(C2CCCCC2)c1 | 197 to 199 °C |
| Cc1cc(C(=O)CCl)c(C)[nH]1 | 143 to 145 °C |
| CN1CCN(Cc2ccc(N)cc2)CC1 | 96 to 98 °C |
| CN1CCN(c2nccc(Cl)n2)CC1 | 94 to 96 °C |
| [N-]=[N+]=Nc1ccc(I)cc1 | 33 to 35 °C |
| O=S1(=O)CCNC2CCCCC21 (centres undefined) | 75 to 77 °C |

Reference: a melting point compilation (Tetko et al.)
